One data set deals with HBV genome. Put plainly: IC 50 of HBV siRNA duplexes (Table A). The arrangement: species or system Hepatitis B virus. Particulars: siRNA duplex.
The next data set concerns HBV DNA. Put plainly: HBV DNA in culture supernatants of HBV-infected PHH by qPCR, single agents and double combinations (Examples 1-4). The format is cell-based, HBV genotype D; primary human hepatocytes. Particulars: Hepatitis B virus; for inhibition at 0.005 µM / inhibition at 0.015 µM / inhibition at 0.044 µM / inhibition at 0.133 µM / inhibition at 0.4 µM: HBV DNA, (V) 0.00 μg/mL; for inhibition at 0.005 µM: (VI) 0.005 μM; for inhibition at 0.015 µM: (VI) 0.015 μM; for inhibition at 0.044 µM: (VI) 0.044 μM; for inhibition at 0.133 µM: (VI) 0.133 μM; for inhibition at 0.4 µM: (VI) 0.400 μM; for EC50: HBV DNA endpoint, PHH, determined in an earlier separate experiment, read-out: EC50; for inhibition at 0.05 µM: (VII) 0.05 μM alone; for inhibition at 0.15 µM: (VII) 0.15 μM alone; for inhibition at 0.44 µM: (VII) 0.44 μM alone; for inhibition at 1.33 µM: (VII) 1.33 μM alone; for inhibition at 4 µM: (VII) 4.00 μM alone. On the procedure:
(§1) The day PHH seeding date was defined as day 0.
(§2) The PHH were infected with 400 HBV GE/cell of HBV genotype D type HBV on day 1.
(§3) The test articles were further diluted with the culture medium to the final test concentrations.
(§4) All the test articles were further diluted 100 times with the culture medium. The final concentration of DMSO in the culture medium was […].
(§5) The compounds were tested at 7 concentrations, 3-fold dilution, in triplicate.
(§6) Four two-way combinations were performed on a 5×5 matrix, in triplicate plates. Transfection reagent was present in all wells. The culture medium containing the articles were refreshed every 1 or 2 days.
DNA in the culture supernatants harvested on days 8 was isolated with QIAamp 96 DNA Blood Kit (Qiagen-51162). For each sample, 100 μl of each culture supernatant was used to extract DNA. The DNA was eluted with 180 μl of AE. HBV DNA in the culture supernatants was quantified by quatitative PCR using primers and probes outlined in Table 3. Percent inhibition of HBV DNA was calculated with the formula below:
% Inh. HBV DNA=[1−value of sample/AVG. value of Medium control]×100.
(§7) Results of double combination studies were analyzed using MacSynergy II software (Prichard and Shipman, 1992).
In general terms: In qPCR the cycle at which signal appears reflects the starting amount.

The subject of a further data set is HBsAg. The data set is described as follows: microbe, parasite or virus in culture. Particulars: Hepatitis B virus; for inhibition at 0.005 µM / inhibition at 0.015 µM / inhibition at 0.044 µM / inhibition at 0.133 µM / inhibition at 0.4 µM: read-out: AVERAGE % INHIBITION, HBsAg, (V) 0.00 μg/mL; for inhibition at 0.005 µM: (VI) 0.005 μM; for inhibition at 0.015 µM: (VI) 0.015 μM; for inhibition at 0.044 µM: (VI) 0.044 μM; for inhibition at 0.133 µM: (VI) 0.133 μM; for inhibition at 0.4 µM: (VI) 0.400 μM; for inhibition at 0.05 µM: (VII) 0.05 μM alone; for inhibition at 0.15 µM: (VII) 0.15 μM alone; for inhibition at 0.44 µM: (VII) 0.44 μM alone; for inhibition at 1.33 µM: (VII) 1.33 μM alone; for inhibition at 4 µM: (VII) 4.00 μM alone. The format is cell-based, HBV genotype D; primary human hepatocytes. As for the experimental part: as §1, §2, §3, §4, §5, §6
HBsAg in the culture supernatants harvested on days 8 was measured using the HBsAg/ELISA kit (Autobio) according to the manual. The samples were diluted with PBS to get the signal in the range of the standard curve. Percent inhibition of HBsAg was calculated with the formula below:
% Inh. HBsAg=[1−HBsAg quantity of sample/[…] of DMSO control]×100
as §7

Setting [1] is: read-out: AVERAGE % INHIBITION, Exp 1.
Where [2] appears, read: read-out: AVERAGE % INHIBITION, Exp 2.

Like-named read-outs stand apart in the source and are kept apart here.

For “1m: "double stranded siRNA molecules selected from the group consisting of 1m, 2m, 3m ... 15m" (sense AGGUAUGUUGCCCGUUUGUUU; antisense UUUCCAUACAACGGGCAAACA; chemistry not fully specified; one strand is listed 3' to 5') [Compound 1m]”, the 50% inhibitory concentration (IC50) with HBV genome was 1.43 nM.

In the data set with HBV genome, “2m: "double stranded siRNA molecules selected from the group consisting of 1m, 2m, 3m ... 15m" (sense GCUCAGUUUACUAGUGCCAUU; antisense UUCGAGUCAAAUGAUCACGGU; chemistry not fully specified; one strand is listed 3' to 5') [Compound 2m]” came in with an IC50 of 0.37 nM.

In the data set with HBV genome, “3m: "double stranded siRNA molecules selected from the group consisting of 1m, 2m, 3m ... 15m" (sense CCGUGUGCACUUCGCUUCAUU; antisense UUGGCACACGUGAAGCGAAGU; chemistry not fully specified) [Compound 3m]” yielded an IC50 of 0.06 nM.

“4m: "double stranded siRNA molecules selected from the group consisting of 1m, 2m, 3m ... 15m" (sense GCUCAGUUUACUAGUGCCAUU; antisense UUCGAGUCAAAUGAUCACGGU; chemistry not fully specified; one strand is listed 3' to 5') [Compound 4m]” had an IC50 in the data set on HBV genome of 0.31 nM.

Take “5m: "double stranded siRNA molecules selected from the group consisting of 1m, 2m, 3m ... 15m" (sense CCGUGUGCACUUCGCUUCAUU; antisense UUGGCACACGUGAAGCGAAGU; chemistry not fully specified) [Compound 5m]”: the IC50 with HBV genome was determined as 0.06 nM.

As for “6m: "double stranded siRNA molecules selected from the group consisting of 1m, 2m, 3m ... 15m" (sense CUGGCUCAGUUUACUAGUGUU; antisense UUGACCGAGUCAAAUGAUCAC; chemistry not fully specified; one strand is listed 3' to 5') [Compound 6m]”, the IC50 in the data set on HBV genome was 0.05 nM.

In the data set on HBV genome, “8m: "double stranded siRNA molecules selected from the group consisting of 1m, 2m, 3m ... 15m" (sense GCUCAGUUUACUAGUGCCAUU; antisense UUCGAGUCAAAUGAUCACGGU; chemistry not fully specified; one strand is listed 3' to 5') [Compound 8m]” displayed an IC50 of 0.24 nM.

Regarding “9m: "double stranded siRNA molecules selected from the group consisting of 1m, 2m, 3m ... 15m" (sense AGGUAUGUUGCCCGUUUGUUU; antisense UUUCCAUACAACGGGCAAACA; chemistry not fully specified; one strand is listed 3' to 5') [Compound 9m]”, in the data set on HBV genome, the IC50 came to 0.13 nM.

For the molecule “10m: "double stranded siRNA molecules selected from the group consisting of 1m, 2m, 3m ... 15m" (sense GCCGAUCCAUACUGCGGAAUU; antisense UUCGGCUAGGUAUGACGCCUU; chemistry not fully specified; one strand is listed 3' to 5') [Compound 10m]”, in the data set with HBV genome, the IC50 worked out at 0.34 nM. Compared with the last molecule, the IC50 is about 2.6-fold higher.

For the molecule `COCCCOc1cc2c(nc1OC)-c1cc(=O)c(C(=O)O)cn1[C@H](C(C)C)C2` [(VI)], in the data set on HBV DNA (Experiment 1), the inhibition at 0.005 µM came out at 0.64%, the inhibition at 0.015 µM was 6.77%, the inhibition at 0.044 µM worked out at 10.9% and the inhibition at 0.133 µM was 26.7%. Also, the inhibition at 0.4 µM in the data set on HBV DNA (Experiment 1) was determined as 21.8%. In addition, in the data set with HBV DNA (Experiment 2), the inhibition at 0.005 µM is 7.21%, the inhibition at 0.015 µM stood at 13.7%, the inhibition at 0.044 µM was 19.3% and the inhibition at 0.133 µM is 12.8%. The inhibition at 0.4 µM in the data set on HBV DNA (Experiment 2) stood at 27.1%. Moreover, the EC50 with HBV DNA came to 6 nM. In the data set with HBsAg, the EC50 was 13 nM. In addition, in the data set on HBsAg (Experiment 1), the inhibition at 0.005 µM is 19.1%, the inhibition at 0.015 µM is 43.1%, the inhibition at 0.044 µM is 62.2% and the inhibition at 0.133 µM was determined as 74%. The inhibition at 0.4 µM in the data set with HBsAg (Experiment 1) was found to be 81%. In the data set with HBsAg (Experiment 2), the inhibition at 0.005 µM worked out at 11.9%, the inhibition at 0.015 µM stood at 38.1%, the inhibition at 0.044 µM came to 56.7% and the inhibition at 0.133 µM was found to be 69.7%. In addition, in the data set on HBsAg (Experiment 2), the inhibition at 0.4 µM is 77.4%.

As for `Cn1cnc(COC(=O)N[C@H]2CCc3c(C(=O)Nc4ccc(F)c(Cl)c4)ccc(F)c32)n1` [(VII)], in the data set on HBV DNA (Exp 1), the inhibition at 0.05 µM was -22.6%, the inhibition at 0.15 µM turned out to be 28.7%, the inhibition at 0.44 µM was determined as 50% and the inhibition at 1.33 µM came to 53.9%. Moreover, the inhibition at 4 µM in the data set on HBV DNA (Exp 1) was 56.2%. For the same molecule, in the data set on HBV DNA (Exp 2), the inhibition at 0.05 µM was -0.21%, the inhibition at 0.15 µM was found to be 16.1%, the inhibition at 0.44 µM was found to be 31.2% and the inhibition at 1.33 µM was found to be 32.9%. In addition, in the data set with HBV DNA (Exp 2), the inhibition at 4 µM stood at 41.3%. Also, the EC50 in the data set on HBV DNA came out at 76 nM. The concentration giving a half-maximal response (EC50) with HBsAg was > 4000 nM. Moreover, in the data set on HBsAg (setting [1]), the inhibition at 0.05 µM is -14.1%, the inhibition at 0.15 µM is -5.43%, the inhibition at 0.44 µM was -9.81% and the inhibition at 1.33 µM is 29.9%. Moreover, in the data set on HBsAg (setting [1]), the inhibition at 4 µM turned out to be 49.6%. Besides, in the data set on HBsAg (setting [2]), the inhibition at 0.05 µM is -3.42%, the inhibition at 0.15 µM is -8.51%, the inhibition at 0.44 µM turned out to be 1.73% and the inhibition at 1.33 µM was determined as 29.4%. In addition, the inhibition at 4 µM with HBsAg (setting [2]) came out at 48.7%.

By IC50 is commonly meant the concentration needed to halve the response being measured. Low values mean greater potency, high ones weaker potency. As usually defined, the inhibition is the drop in the measured response relative to a control, in per cent. As usually defined, the EC50 is the concentration that produces a half-maximal response.

The values above are taken from patent publication US20220168430A1, “THERAPEUTIC METHODS FOR TREATING HEPATITIS B” (priority 2019, published 2022).
